Here are results for 4 compounds from patent US20250197343A1, “CATIONIC LIPID” (TAKEDA PHARMACEUTICAL COMPANY LIMITED, priority 2021, published 2025).

The nature of data set [1]: Particle size of Luc DNA-encapsulated lipid nanoparticles. The format is physicochemical. The following applies: cationic lipid:DPPC:cholesterol:GM-020=60:10.6:28:1.4 molar ratio. A digest of the protocol: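 LNPs of cationic lipid:DPPC:cholesterol:GM-020 (60:10.6:28:1.4 molar) encapsulating luciferase DNA, made by microfluidic mixing with DNA in 10 mM MES pH 5.5, dialysed into PBS, stored in 20% sucrose/PBS at −80 °C. Size by dynamic light scattering, reported as cumulant Z-average.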

A short description of data set [2]: Rate of encapsulation of Luc DNA in lipid nanoparticles. The format is physicochemical. More on the design: unit: %. The following applies: Luc DNA-encapsulated lipid nanoparticles; cationic lipid:DPPC:cholesterol:GM-020=60:10.6:28:1.4 molar ratio. A digest of the protocol: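 Luc DNA-LNPs (cationic lipid:DPPC:cholesterol:GM-020 = 60:10.6:28:1.4 molar) formed by microfluidic mixing with DNA in 10 mM MES pH 5.5, then dialyzed into PBS. RiboGreen fluorescence measured with and without Triton X-100; encapsulation rate is the encapsulated fraction of total nucleic acid.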

Another data set concerns ICrl:CD1 (ICR) mice. Put plainly: Mouse bioluminescence imaging evaluation (Test Example 1). The following applies: Luc DNA-encapsulated lipid nanoparticles 10 mL/kg i.v. to ICR mice; IVIS total flux 15 minutes after luciferin i.p. The class given is in vivo. A digest of the protocol: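 ICR mice received Luc DNA-encapsulated lipid nanoparticles i.v. (10 mL/kg), then luciferin 15 mg/mL i.p. (10 mL/kg). Ventral IVIS imaging under isoflurane 15 min after luciferin; total flux scored A (≥3.0E+07), B (1.0E+07 to <3.0E+07), C (<1.0E+07).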

A further data set deals with Huh-7 cells. Nature of the data set: Evaluation of viability using Huh-7 cells (Test Example 2). The class given is cell-based. The following applies: Huh-7 cells, Luc DNA-encapsulated lipid nanoparticles, PBS group = 100%, dead cell group = 0%; for Viability 0.1 μg/ml (%): final concentration 0.1 μg/mL; for Viability 0.3 μg/ml (%): final concentration 0.3 μg/mL. As for the experimental part: Huh-7 cells were seeded in a 96-well plate, and PBS, the Luc DNA-encapsulated lipid nanoparticles obtained in the aforesaid Production Example by using the cationic lipids of the Examples shown in Table 3, or Luc DNA-encapsulated lipid nanoparticles for control which were obtained in the same manner as in the aforesaid Production Example except that a known lipid, MC3 (DLin-MC3-DMA) or ALC-0315, was used instead of the cationic lipids of the Examples were added thereto (final concentration: 0.1 μg/mL and 0.3 μg/mL), followed by evaluation of viability (CellTiter-Fluor Cell Viability Assay, Promega Corporation). Taking the viability of dead cell group as 0% and the viability of the PBS group as 100%, the viability of each of the lipid particle groups was calculated. Higher viability indicates higher safety of the lipid particles. When the cationic lipids of the Examples were used, an improvement in safety compared to the control groups of MC3 and ALC-0315 was observed.

Regarding `CCCCCCCCCCOC(=O)CCCCC(=O)OCC(COC(=O)CCCN(C)C)(COC(=O)CC(CCCCC)CCCCC)COC(=O)CC(CCCCC)CCCCC` [Example 51, Decyl 2-({[4-(dimethylamino)butanoyl]oxy}methyl)-3-[(3-pentyloctanoyl)oxy]-2-{[(3-pentyloctanoyl)oxy]methyl}propyl hexanedioate], in data set [1], the “Particle size (nm)” value came to 83.9 nm. Also, the Rate of encapsulation in data set [2] is given as 98.2. The Luminescence result in the data set on ICrl:CD1 (ICR) mice was “B (B represents luminescence of 1.0E+0.7 or more and less than 3.0E+07)”. Further, in the data set on Huh-7 cells, the “Viability 0.1 μg/ml (%)” value is recorded as 104% and the “Viability 0.3 μg/ml (%)” value was 78%.
As for `CCCCCCCOC(=O)CCCCC(=O)OCC(COC(=O)CCCCC(=O)OCCCCCCC)(COC(=O)CCCN(C)CCO)COC(=O)CC(CCCCC)CCCCC` [Example 93, 1,1′-Diheptyl 6,6′-(2-[({4-[(2-hydroxyethyl)(methyl)amino]butanoyl}oxy)methyl]-2-{[(3-pentyloctanoyl)oxy]methyl}propane-1,3-diyl) dihexanedioate], the “Particle size (nm)” value in data set [1] amounted to 145.6 nm. Moreover, the Rate of encapsulation in data set [2] came to 94.8. For the same compound, the Luminescence result in the data set on ICrl:CD1 (ICR) mice is “B (B represents luminescence of 1.0E+0.7 or more and less than 3.0E+07)”. Also, in the data set on Huh-7 cells, the “Viability 0.1 μg/ml (%)” value is given as 105% and the “Viability 0.3 μg/ml (%)” value was determined as 101%.
With `CCCCCC(CCCCC)CC(=O)OCC(COC(=O)CCCCC(=O)OCC(CCC)CCC)(COC(=O)CCCCC(=O)OCC(CCC)CCC)COC(=O)CCCN(C)C` [Example 115, 1,1′-[2-({[4-(Dimethylamino)butanoyl]oxy}methyl)-2-{[(3-pentyloctanoyl)oxy]methyl}propane-1,3-diyl] 6,6′-bis(2-propylpentyl) dihexanedioate], in data set [1], the “Particle size (nm)” value was found to be 109.6 nm. For the same compound, the Rate of encapsulation in data set [2] worked out at 95.7. Further, the Luminescence entry in the data set with ICrl:CD1 (ICR) mice is given as “A (A represents luminescence of 3.0E+07 or more)”. In addition, in the data set on Huh-7 cells, the “Viability 0.1 μg/ml (%)” value amounted to 110% and the “Viability 0.3 μg/ml (%)” value is 100%.
Taken in the same sequence, the figures for `CCCCCCCCC(C(=O)OC)C(=O)OCC(COC(=O)CCCN(C)C)(COC(=O)CC(CCCCC)CCCCC)COC(=O)C(CCCCCCCC)C(=O)OC` (centres unmarked) [Example 132, 1,1′-[2-({[4-(Dimethylamino)butanoyl]oxy}methyl)-2-{[(3-pentyloctanoyl)oxy]methyl}propane-1,3-diyl] 3,3′-dimethyl bis(octylpropanedioate)] were 129.2 nm, 96.5, “A (A represents luminescence of 3.0E+07 or more)”, 95% and 94%.
